How the values were obtained:
[1] = tested on: MDA-MB 231 cells; assay: Apoptosis assay (annexin V-FITC/propidium iodide flow cytometry); details: 10 mM, MDA-MB 231; for apoptosis/necrosis, time course analysis: up to 3 h
Method: (§1) FIGS. (7A1–7A3), (7B1–7B2), (7C1–7C3), (7D1–7D2), (7E1–7E3), (7F1–7F2). […] Cells were grown in serum-free medium overnight in T-25 flasks and treated with tempol (10 mM) or tempo (10 mM) for various times, trypsinized, and then resuspended in 200 ul 1× binding buffer as described in experimental procedures. The cell suspension was double-stained with annexin V-FITC and propidium iodide and analyzed by flow cytometry. Background signal was determined by comparison with double-stained, single-stained, or unstained control cells. (7A1–7A3), (7C1–7C3), and (7E1–7E3) are cytograms showing a relative distribution of viable (V), apoptotic (A), and necrotic (N) cells at 2 h following tempol or tempo treatment of MDA-MB 231 cells (A), PCI-04A cells (C), and PC-3 cells (E). (7B1–7B3), (7D1–7D2), and (7F1–7F2) are time course analyses of MDA-MB 231 cells (B), PCT-04A cells (D), and PC-3 cells (F). 100,000 cells were analyzed at each time point in triplicate (B) or quadruplicate (D and F). Solid bars, 1% ethanol, striped bars, 10 mM tempol, empty bars, 10 mM tempo. […] Data shown are representative from three to four independent experiments. (7B1–7B2), Time course analysis of MDA-MB 231 cells undergoing apoptosis (annexin V-FITC staining) (7B1), or necrosis (propidium iodide staining) (7B2). Values shown are mean±s.d. of triplicate determinations per time point in each treatment category, and representative of three to four independent experiments. […] (7D1–7D2), Time course analysis of PCI-04A cells undergoing apoptosis (annexin V-FITC staining) (7D1), or necrosis (propidium iodide staining) (7D2). Values shown are mean±s.d. of quadruplicate determinations per time point in each treatment category. […] (7F1–7F2), Time course analysis of PC-3 cells undergoing apoptosis (annexin V-FITC staining) (7F1), or necrosis (propidium iodide staining) (7F2). Values shown are mean±s.d. of quadruplicate determinations per time point in each treatment category. Control/C, cells treated with 1% ethanol for 2 h.
(§2) Apoptosis Assay—ApoAlert Annexin V apoptosis detection system (Clontech Lab Inc., Palo Alto, Calif.) was used to measure the relative distribution of apoptotic and necrotic cells. Briefly, cells were seeded at a density of 1×10^6 cells per 25 cm^2 tissue culture flask in medium containing 10% FBS overnight, followed by washing twice in serum-free medium. Cells were maintained overnight in serum-free medium and exposed to tempol (10 mM) or tempo (10 mM) for various times. This was followed by rinsing twice with serum-free medium prior to trypsinization, dilution in two volumes of serum-free medium, and centrifugation at 10,000× g. The cell pellet was washed once with PBS and resuspended in 200 ul of 1× binding buffer. The cell suspension was double-labeled with fluorescein isothiocyanate (FITC)-labeled annexin V (10 ul) and propidium iodide (PI) (10 ul) according to the manufacturer's instructions. Unlabeled cells or untreated cells labeled with either FITC-annexin V or PI, or double-labeled served as internal controls for the background signal. The intensity of the dye uptake by cells was detected using FACStar plus Flow Cytometer (Becton Dickerson, Lincoln Park, N.J.), and data were analyzed using Reproman True Facts software (Seattle, Wash.). Viable cells were FITC−/PI−, apoptotic cells were FITC+/PI−, and necrotic cells were FITC+/PI+.

[2] = tested on: PCI-04A cells; assay: as above; details: 10 mM, PCI-04A
Method: as §1, §2

[3] = tested on: PC-3 cells; assay: Apoptosis assay (annexin V-FITC/propidium iodide flow cytometry), serum-free; details: 10 mM, 2 h, PC-3
Method: as §1
Apoptosis Assay—ApoAlert Annexin V apoptosis detection system (Clontech Lab Inc., Palo Alto, Calif.) was used to measure the relative distribution of apoptotic and necrotic cells. Briefly, cells were seeded at a density of 1×10^6 cells per 25 cm^2 tissue culture flask in medium containing 10% FBS overnight, followed by washing twice in serum-free medium. Cells were maintained overnight in serum-free medium and exposed to tempol (10 mM) or tempo (10 mM) for various times. […] The intensity of the dye uptake by cells was detected using FACStar plus Flow Cytometer (Becton Dickerson, Lincoln Park, N.J.), and data were analyzed using Reproman True Facts software (Seattle, Wash.). […]

[4] = tested on: MDA-MB 231 cells; assay: Ceramide generation assay (DAG kinase assay); assay type: cell-based, human; details: 10 mM
Method: FIG. 8. Ceramide production in tempo-treated MDA-MB 231 cells. Logarithmically growing cells were cultured in serum-free medium overnight in 60 mm dishes, and treated with tempol (10 mM) and tempo (10 mM) for indicated times, followed by lipid extraction, and quantitation of ceramide by DAG kinase assay as described in experimental procedures. The organic phase extract containing the [γ^32P]-labeled ceramide was quantitated. Control cells were grown overnight in serum-free medium, followed by treatment with 1% ethanol for various times ranging from 0.5 h to 2 h. Tempol/tempo treatment values shown are the mean±s.d. of triplicate determinations, the value at each time point normalized to control (100%).
Ceramide Generation Assay—Ceramide production in MDA-MB 231 cells was determined by diacylglycerol (DAG) kinase assay according to a previously described procedure (Haimovitz-Friedman, A. et al., 1994, J. Exp. Med. 180, 525–535; Dressler, K. A. and Kolesnick, R. N., 1990, J. Biol. Chem. 265, 14917–14921). Briefly, MDA-MB 231 cells were split (1:2), and after 24 h, the cells were washed twice with PBS and serum-free medium was added, followed by incubation for additional 24 h. The cells (˜2×10^6/60 mm dish) were treated with tempo (10 mM) or tempol (10 mM) for various times. Following treatment, floating cells were collected and pelleted by centrifugation for 10 min at 1200 rpm, and attached cells were collected by scraping. Lipids were extracted from all cells (floating and attached) by incubation in 1 ml 100% ice-cold methanol. After a partial purification with chloroform, the extracted lipid in the organic phase was dried under N2 and was treated with a mild alkaline solution (0.1 N KOH in methanol) for 1 h at 37° C. to remove glycerolphospholipids. […] The spot containing the ceramide-1-phosphate was visualized by autoradiography, and the incorporated ^32P was removed by scraping, and quantified by Cerenkov counting. […]

| Compound | apoptotic cells (A) ([1]; 2 h) [%] | apoptosis/necrosis, time course analysis [1] | apoptotic cells (A) ([2]; 2 h) [%] | apoptotic cells (A) [3] [%] | level of ceramide generated compared to control cells ([4]; all time points) | viable cells (V) ([1]; 2 h) [%] | viable cells (V) ([2]; 2 h) [%] | apoptosis and necrosis ([2]; 2 h post-treatment) | viable cells (V) [3] [%] | increase over control in ceramide level ([4]; 30 min, control normalized to 100%) [%] | ceramide level over control ([4]; 1 h, control normalized to 100%) [%] |
| --- | --- | --- | --- | --- | --- | --- | --- | --- | --- | --- | --- |
| CC1(C)CC(O)CC(C)(C)N1[O] [tempol, 4-hydroxy-tempo, reference compound] | 6.32 | did not induce apoptosis or necrosis | 5.44 | 1.20 | not significantly higher |  |  |  |  |  |  |
| CC1(C)CCCC(C)(C)N1[O] [tempo, 2,2,6,6-tetramethylpiperidine-N-oxyl] | 52.42 | steady increase in the number of apoptotic cells for upto 2 h, followed by a considerable increase in the number of necrotic cells by 3 h | 48.35 | 2.57 |  | 35.83 | 18.61 | significant level of apoptosis and necrosis | 10.76 | 54 | 71 |

From US7074807B2, “Compositions and methods for inducing cell death” (Georgetown University, priority 1998, dated 2006)
